For one data set, the system named is Eimeria acervulina. The experiment in a line: Protozoan (sporozoite) direct killing ability, Eimeria acervulina. It counts as cell-based. The note with it: for Eimeria acervulina protozoal death rate (%): compared to PBS-treated negative control group; for Minimum concentration for killing 100% protozoa (ppm), Eimeria acervulina: tested 1 to 500 ppm. The procedure:
In the present example, protozoan (sporozoite) direct killing ability evaluation was conducted against 3 representative Eimeria kinds known to be infected in most farms (E. tenella, E. acervulina, E. maxima).
A certain amount of oocysts of each protozoan was put in a tube containing glass beads and pulverized, and then to remove the crushed oocyst cell wall and other debris, internal sporocysts were purified using the percoll density gradient, and washed with PBS solution. A reagent comprising sodium taurocholic acid (Sigma aldrich, USA) and trypsin (Gibco, USA), respectively, was treated to sporocysts of Eimeria tenella, Eimeria acervulina and Eimeria maxima for excystation and they were incubated, and then they were washed with PBS solution once and protozoa were obtained.
After reacting the mangosteen pericarp extract, epicatechin, alpha-mangostin, xanthone and anticoccidial agents, salinomycin and diclazuril (hereinafter, material) with 3 kinds of Eimeria protozoa at various concentrations of 1 to 500 ppm, respectively, only alive protozoa (sporozoites) were counted through microscopic observation. Then, the death rate (%) of the protozoa when each material was treated compared to the PBS-treated negative control group was calculated and shown in Table 8 to Table 10 and Table 12, respectively, and the minimum concentration which directly killed the protozoa by 100% was shown in Table 11 below.

Data set [1] deals with MDBK(Madin-Darby Bovine Kidney Epithelial Cells). Nature of the data set: Cytotoxicity, MTS analysis, MDBK. The note with it: 3.1~500 ppm/well, 14 hours + 2 hours MTS, vs 5% DMSO treatment group. From the text:
In the present example, using MTS analysis method (3-(4,5-[…])-5-(3-carboxymethoxyphenyl)-2-(4-sulfophenyl)-2H-tetrazolium, promega, USA), an effect on survival of cells of the mangosteen extract was investigated.
The cell lines utilized in cytotoxicity evaluation were (1) MDBK(Madin-Darby Bovine Kidney Epithelial Cells) and (2) RAW264.7(Mouse macrophage cell), and all of them were purchased from ATCC and used.
Each cell was aliquoted at a concentration of 1×10^5 cell/well in a 96-well cell culture plate, and cultured at 37° C. for 24 hours, and then each material (mangosteen extract, xanthone, alpha-mangostin and epicatechin) was treated by concentration (3.1˜500 ppm/well) and cultured at a temperature of 37° C.

A further data set has as its system Eimeria tenella. Nature of the data set: In vivo anticoccidial efficacy evaluation in broilers challenge-inoculated with Eimeria tenella. Further details: species or system Ross broilers. The procedure: An in vivo anticoccidial efficacy evaluation test was performed in an animal experiment facility in Gyeongsangnam-do, South Korea. One-day-old female Ross broilers were individually weighed and randomly divided into groups to use in an experiment. Matters and conditions for experimental design were described in Table 2.
A breeding farm was managed according to the Korean poultry breeding management guidelines. Cages and the breeding farm were cleaned and disinfected before starting the test. The temperature of […] and the humidity of 40 to 50% of the breeding farm were maintained, and it was continuously monitored.
For the feed, Korea Feed Al-choi product was used, and each material (salinomycin (Cheil Bio Cheilsalino-60 product), xanthone (Sigma Aldrich X600 product), and the mangosteen extract prepared in Example 1-2 above) was added to the feed, respectively, at a concentration described in Table 3 below to be self-mixed. Antibiotics and supplements were not used in general feed and mixed feed, and no anticoccidial agent other than each material was added. Broilers were fed ad libitum throughout the experiment period. After putting 20 1-day-age broilers in cages randomly placed for each of the control group or test group and breeding, general feed was fed for 7 days, and then the mixed feed prepared above was ingested by dividing by control group or test group.
The feed formulation administered to the control group (negative control group or positive control group) and test group and whether coccidiosis was induced by Eimeria tenella were described in Table 3 below. 20 1-day-old broilers were put in a cage randomly arranged for each test group, and after 7 days of feeding the general feed, the formulated feed as described in Table 3 was divided into each test group and ingested.
14-day-old broilers were orally inoculated with 10,000 oocysts (90% sporulated Eimeria tenella oocysts) per individual to induce coccidiosis.
The anticoccidial efficacy by test group designed in Example 1-3 above was shown as an anticoccidial index (ACI), and the anticoccidial index was calculated by Equation 2 below. The ACI score is out of 200 points, and the higher the ACI score, the more excellent the anticoccidial ability, and when it is 120 points or more to less than 140 points, it is determined that it is effective as an anticoccidial material, and when it is 140 points or more to less than 160 points, it is determined that it is excellent as an anticoccidial material, and when it is 160 points or more, it is determined that the anticoccidial effect is very excellent. (Luis Miguel De Pablos et al., Anticoccidial activity of maslinic acid against infection with Eimeria tenella in chickens, Parasitol Res, 2010)
Anticoccidial index (ACI)=(survival rate after challenge inoculation (%))+(daily weight gain compared to negative control group (RWG, %))−(lesion score×10)−(fecal oocyst excretion amount index) (Equation 2)
1) Survival rate: the number of dead individuals was recorded daily, and post mortem autopsy was performed to determine a cause of mortality, and the number of individuals who died due to causes other than coccidiosis was excluded. The survival rate (%) up to the 8th day after challenge inoculation was used for anticoccidial index calculation.
2) Daily weight gain: body weight was measured for each cage before challenge inoculation with a protozoan into an individual and at the 7th day after challenge inoculation, and the difference was divided by the number of days to calculate the daily weight gain (ADG, g/d). ‘Daily weight gain compared to the negative control group (RWG, %)’which was calculated by dividing the daily weight gain (ADG, average daily gain; g/d) of each experimental group by the weight gain (ADG, g/d) of the non-infected negative control group and multiplying by 100 was used for anticoccidial index calculation. […]

Take `O=c1c2ccccc2oc2ccccc12` [Xanthone, xanthone]: the “Eimeria acervulina protozoal death rate (%)” value in the data set on Eimeria acervulina (1 ppm), in the data set with Eimeria acervulina (5 ppm), with Eimeria acervulina (10 ppm), with Eimeria acervulina (50 ppm), with Eimeria acervulina (100 ppm) and with Eimeria acervulina (125 ppm) was 0% throughout. Moreover, the “Eimeria acervulina protozoal death rate (%)” value stood at 11% with Eimeria acervulina (250 ppm) and 25% with Eimeria acervulina (500 ppm). In addition, the “Minimum concentration for killing 100% protozoa (ppm), Eimeria acervulina” value in the data set with Eimeria acervulina and in the data set with Eimeria acervulina (listed as xanthone) was greater than 500 ppm each time. In addition, the “Minimum concentrataion of cytotoxicity at which cells of 50% or more survive (ppm)” value in data set [1] is listed as no less than 62.5 ppm. Moreover, the “Intermediate body weight (14-day-old, before challenge inoculation)” value in the data set on Eimeria tenella (formulated feed 62.5 ppm from day 7, female Ross broilers) worked out at 470.9. For the same compound, the Appendix lesion score in the data set with Eimeria tenella (formulated feed 62.5 ppm, 8th day after challenge inoculation, scale of 0-4) came out at 2.4. Besides, the “End body weight (21-day-old, on the 7th day of challenge inoculation)” value in the data set on Eimeria tenella (formulated feed 62.5 ppm, 10,000 E. tenella oocysts oral at 14 days) was determined as 887.0. Further, the “Day 14~Day 21 ADG (daily weight gain)” value in the data set with Eimeria tenella (formulated feed 62.5 ppm, E. tenella infected broilers) stood at 56.42 g/day. Further, the “Anticoccidial index (ACI)” value with Eimeria tenella (formulated feed 62.5 ppm, Equation 2, out of 200 points) was 122. Besides, the Oocyst excretion amount/gram in the data set on Eimeria tenella (formulated feed 62.5 ppm, feces of 6~8th day of challenge inoculation, McMaster chamber) is listed as 1.80E+08 /gram. Also, in the data set with Eimeria tenella (formulated feed 62.5 ppm, relative to non-infected negative control group), the “RWG (daily weight gain compared to the negative control group)” value stood at 85%.

These data come from US20230321171A1, “ANTI-COCCIDIAL COMPOSITION COMPRISING MANGOSTEEN AND USES THEREOF” (CJ CHEILJEDANG CORPORATION, priority 2020, published 2023).
